# Measurements as given in PubChem BioAssay AID220 (DTP/NCI, 2004).
# “And” between values parts separate entries of the source, which are not always exact repeats. Equal values may be shown once. Records with an inconclusive call do not appear.
# Tested on: CD8F1 mice, subcutaneous mammary adenocarcinoma, T/C%
# Test: NCI In Vivo Anticancer Drug Screen. Data for tumor model Mammary Adenocarcinoma CD8F1 (subcutaneous) in CD8F1
# Details: higher = larger tumour
# Outline: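 Tumor-bearing mice, transplantable model; readout survival or tumor size; value = treated (T) / vehicle control (C).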
# [1] = endpoint: median tumor weight change, dose: 62.5 mg/kg/injection, schedule: Q01DX001 (ip), vehicle: saline with Tween-80
# [2] = endpoint: median tumor weight change, dose: 125.0 mg/kg/injection, schedule: Q01DX001 (ip), vehicle: saline with Tween-80
# [3] = endpoint: median tumor weight change, dose: 250.0 mg/kg/injection, schedule: Q01DX001 (ip), vehicle: saline with Tween-80
# [4] = endpoint: median tumor weight change, dose: 500.0 mg/kg/injection, schedule: Q01DX001 (ip), vehicle: saline with Tween-80
# [5] = endpoint: median tumor weight (est.), dose: 25.0 mg/kg/injection, schedule: Q07DX005 (ip), vehicle: saline
structure (smiles),measurement,setting,value
CC(=O)c1cccc(NC2C(N)C(NC(=O)N(C)C)(C(C)O)C(C)(O)C2(O)COC(=O)c2c(C)cccc2O)c1 (stereo not given),T/C,"endpoint: median tumor weight (est.), dose: 1.0 mg/kg/injection, schedule: Q07DX005 (ip), vehicle: suspension in saline",162 % of control
same,T/C,"endpoint: median tumor weight (est.), dose: 1.8 mg/kg/injection, schedule: Q07DX005 (ip), vehicle: saline with Tween-80",67 % of control and 77 % of control
same,T/C,"endpoint: median tumor weight (est.), dose: 2.0 mg/kg/injection, schedule: Q07DX005 (ip), vehicle: suspension in saline",78 % of control
same,T/C,"endpoint: median tumor weight (est.), dose: 3.6 mg/kg/injection, schedule: Q07DX005 (ip), vehicle: saline with Tween-80",72 % of control and 93 % of control
same,T/C,"endpoint: median tumor weight (est.), dose: 4.0 mg/kg/injection, schedule: Q07DX005 (ip), vehicle: suspension in saline",78 % of control
same,T/C,"endpoint: median tumor weight (est.), dose: 7.2 mg/kg/injection, schedule: Q07DX005 (ip), vehicle: saline with Tween-80",55 % of control and 78 % of control
same,T/C,"endpoint: median tumor weight (est.), dose: 8.0 mg/kg/injection, schedule: Q07DX005 (ip), vehicle: suspension in saline",119 % of control
same,T/C,"endpoint: median tumor weight (est.), dose: 14.4 mg/kg/injection, schedule: Q07DX005 (ip), vehicle: saline with Tween-80",23 % of control and 44 % of control
COC1=C2C[C@@H](C)C[C@@H](OC)[C@@H](O)[C@H](C)/C=C(\C)[C@@H](OC(N)=O)[C@H](OC)/C=C\C=C(/C)C(=O)NC(=CC1=O)C2=O,T/C,"endpoint: median tumor weight change, dose: 1.25 mg/kg/injection, schedule: Q01DX001 (ip), vehicle: saline with Tween-80",93 % of control and 98 % of control
same,T/C,"endpoint: median tumor weight change, dose: 2.5 mg/kg/injection, schedule: Q01DX001 (ip), vehicle: saline with Tween-80",117 % of control and 121 % of control
same,T/C,"endpoint: median tumor weight change, dose: 5.0 mg/kg/injection, schedule: Q01DX001 (ip), vehicle: saline with Tween-80",46 % of control
FC(F)(F)c1nc2nc(Cl)c(Cl)nc2[nH]1,T/C,[1],77 % of control
same,T/C,[2],114 % of control
same,T/C,[3],74 % of control
CN(C)C1C(=O)C(C(=O)NP(=O)(NCCCO)N(CCCl)CCCl)=C(O)C2(O)C(=O)C3=C(O)c4c(O)cccc4C(C)(O)C3CC12 (stereo not given),T/C,[3],46 % of control and 69 % of control
same,T/C,[4],21 % of control
CN=C(N)N/N=C(\c1ccccc1)c1ccc(Br)cc1,T/C,"endpoint: median tumor weight change, dose: 15.6 mg/kg/injection, schedule: Q01DX001 (ip), vehicle: saline with Tween-80",71 % of control
same,T/C,"endpoint: median tumor weight change, dose: 31.25 mg/kg/injection, schedule: Q01DX001 (ip), vehicle: saline with Tween-80",56 % of control
same,T/C,[1],55 % of control
NCCc1ccc(O)c(O)c1,T/C,"endpoint: mean tumor weight, dose: 300.0 mg/kg/injection, schedule: Q07DX005 (ip), vehicle: saline",39 % of control
same,T/C,"endpoint: mean tumor weight, dose: 600.0 mg/kg/injection, schedule: Q07DX005 (ip), vehicle: saline",87 % of control
same,T/C,[5],62 % of control
same,T/C,"endpoint: median tumor weight (est.), dose: 200.0 mg/kg/injection, schedule: Q07DX005 (ip), vehicle: saline",83 % of control
same,T/C,"endpoint: median tumor weight (est.), dose: 300.0 mg/kg/injection, schedule: Q07DX005 (ip), vehicle: saline",74 % of control
CC(=O)C(=O)O.CC(=O)C(=O)O.[NH-]C1CCCCC1[NH-].[Pt+2] (stereo not given),T/C,"endpoint: median tumor weight change, dose: 15.0 mg/kg/injection, schedule: Q01DX001 (ip), vehicle: dextrose",70 % of control
same,T/C,"endpoint: median tumor weight change, dose: 30.0 mg/kg/injection, schedule: Q01DX001 (ip), vehicle: dextrose",79 % of control
same,T/C,"endpoint: median tumor weight change, dose: 60.0 mg/kg/injection, schedule: Q01DX001 (ip), vehicle: dextrose",51 % of control
same,T/C,"endpoint: median tumor weight change, dose: 62.5 mg/kg/injection, schedule: Q01DX001 (ip), vehicle: dextrose",-38 % of control
same,T/C,"endpoint: median tumor weight change, dose: 120.0 mg/kg/injection, schedule: Q01DX001 (ip), vehicle: dextrose",45 % of control
Cn1c(=O)c2ncnnc2n(C)c1=O,T/C,"endpoint: median tumor weight (est.), dose: 4.7 mg/kg/injection, schedule: Q07DX005 (ip), vehicle: Klucel (hydroxypropylcellulose) (HPC)",59 % of control
same,T/C,"endpoint: median tumor weight (est.), dose: 9.4 mg/kg/injection, schedule: Q07DX005 (ip), vehicle: Klucel (hydroxypropylcellulose) (HPC)",63 % of control
same,T/C,"endpoint: median tumor weight (est.), dose: 18.8 mg/kg/injection, schedule: Q07DX005 (ip), vehicle: Klucel (hydroxypropylcellulose) (HPC)",52 % of control
COc1cc(C2c3cc4c(cc3C(O)C(CO)C2CO)OCO4)cc(OC)c1OC (stereo not given),T/C,[2],85 % of control
same,T/C,[3],102 % of control
same,T/C,[4],77 % of control
same,T/C,"endpoint: median tumor weight change, dose: 1000.0 mg/kg/injection, schedule: Q01DX001 (ip), vehicle: saline with Tween-80",95 % of control
same,T/C,"endpoint: median tumor weight change, dose: 2000.0 mg/kg/injection, schedule: Q01DX001 (ip), vehicle: saline with Tween-80",50 % of control
CCc1ccc(C2=C(O)C(=O)C(c3ccccc3)=C(O)C2=O)cc1,T/C,"endpoint: median tumor weight change, dose: 31.25 mg/kg/injection, schedule: Q01DX001 (ip), vehicle: Klucel (hydroxypropylcellulose) (HPC)",84 % of control
same,T/C,"endpoint: median tumor weight change, dose: 62.5 mg/kg/injection, schedule: Q01DX001 (ip), vehicle: Klucel (hydroxypropylcellulose) (HPC)",106 % of control
same,T/C,"endpoint: median tumor weight change, dose: 125.0 mg/kg/injection, schedule: Q01DX001 (ip), vehicle: Klucel (hydroxypropylcellulose) (HPC)",59 % of control
CCOC(=O)C(CC(C)C)NC(=O)C(Cc1ccc(N(CCCl)CCCl)cc1)NC(C)=O (stereo not given),T/C,"endpoint: median tumor weight (est.), dose: 8.0 mg/kg/injection, schedule: Q07DX005 (ip), vehicle: saline with Tween-80",112 % of control
same,T/C,"endpoint: median tumor weight (est.), dose: 32.0 mg/kg/injection, schedule: Q07DX005 (ip), vehicle: saline with Tween-80",49 % of control and 58 % of control
same,T/C,"endpoint: median tumor weight (est.), dose: 64.0 mg/kg/injection, schedule: Q07DX005 (ip), vehicle: saline with Tween-80",9 % of control
Nc1nc(N)c2c(Cl)c(CNc3ccc(Cl)c(Cl)c3)ccc2n1,T/C,"endpoint: median tumor weight (est.), dose: 6.25 mg/kg/injection, schedule: Q07DX005 (ip), vehicle: saline with Tween-80",55 % of control
same,T/C,"endpoint: median tumor weight (est.), dose: 12.5 mg/kg/injection, schedule: Q07DX005 (ip), vehicle: saline with Tween-80",78 % of control
same,T/C,"endpoint: median tumor weight (est.), dose: 25.0 mg/kg/injection, schedule: Q07DX005 (ip), vehicle: saline with Tween-80",82 % of control
same,T/C,"endpoint: median tumor weight (est.), dose: 50.0 mg/kg/injection, schedule: Q07DX005 (ip), vehicle: saline with Tween-80",8 % of control
same,T/C,"endpoint: median tumor weight (est.), dose: 100.0 mg/kg/injection, schedule: Q07DX005 (ip), vehicle: saline with Tween-80",27 % of control
CC[C@H]1CN2CCc3cc(OC)c(OC)cc3[C@@H]2C[C@@H]1C[C@H]1NCCc2cc(OC)c(OC)cc21,T/C,"endpoint: mean tumor weight, dose: 0.88 mg/kg/injection, schedule: Q07DX006 (ip), vehicle: saline",46 % of control
same,T/C,"endpoint: mean tumor weight, dose: 1.75 mg/kg/injection, schedule: Q07DX005 (ip), vehicle: saline",163 % of control
same,T/C,"endpoint: mean tumor weight, dose: 1.75 mg/kg/injection, schedule: Q07DX006 (ip), vehicle: saline",65 % of control
same,T/C,"endpoint: mean tumor weight, dose: 3.5 mg/kg/injection, schedule: Q07DX005 (ip), vehicle: saline",258 % of control
same,T/C,"endpoint: mean tumor weight, dose: 3.5 mg/kg/injection, schedule: Q07DX006 (ip), vehicle: saline",42 % of control
same,T/C,"endpoint: mean tumor weight, dose: 7.0 mg/kg/injection, schedule: Q07DX005 (ip), vehicle: saline",153 % of control
same,T/C,"endpoint: mean tumor weight, dose: 7.0 mg/kg/injection, schedule: Q07DX006 (ip), vehicle: saline",73 % of control
same,T/C,"endpoint: mean tumor weight, dose: 14.0 mg/kg/injection, schedule: Q07DX005 (ip), vehicle: saline",156 % of control
same,T/C,"endpoint: mean tumor weight, dose: 14.0 mg/kg/injection, schedule: Q07DX006 (ip), vehicle: saline",96 % of control
same,T/C,"endpoint: median tumor weight (est.), dose: 1.75 mg/kg/injection, schedule: Q07DX005 (ip), vehicle: saline",214 % of control
same,T/C,"endpoint: median tumor weight (est.), dose: 3.5 mg/kg/injection, schedule: Q07DX005 (ip), vehicle: saline",166 % of control
same,T/C,"endpoint: median tumor weight (est.), dose: 7.0 mg/kg/injection, schedule: Q07DX005 (ip), vehicle: saline",92 % of control
same,T/C,"endpoint: median tumor weight (est.), dose: 28.0 mg/kg/injection, schedule: Q07DX005 (ip), vehicle: saline",86 % of control
C1CC[N-]CC1.C1CC[N-]CC1.C1CC[N-]CC1.[Cl][Rh]([Cl])[Cl],T/C,"endpoint: median tumor weight (est.), dose: 6.25 mg/kg/injection, schedule: Q07DX005 (ip), vehicle: saline",112 % of control
same,T/C,"endpoint: median tumor weight (est.), dose: 8.0 mg/kg/injection, schedule: Q07DX005 (ip), vehicle: saline",118 % of control
same,T/C,"endpoint: median tumor weight (est.), dose: 12.5 mg/kg/injection, schedule: Q07DX005 (ip), vehicle: saline",100 % of control
same,T/C,[5],73 % of control
same,T/C,"endpoint: median tumor weight (est.), dose: 32.0 mg/kg/injection, schedule: Q07DX005 (ip), vehicle: saline",61 % of control
same,T/C,"endpoint: median tumor weight (est.), dose: 50.0 mg/kg/injection, schedule: Q07DX005 (ip), vehicle: saline",84 % of control
same,T/C,"endpoint: median tumor weight (est.), dose: 64.0 mg/kg/injection, schedule: Q07DX005 (ip), vehicle: saline",47 % of control
same,T/C,"endpoint: median tumor weight (est.), dose: 100.0 mg/kg/injection, schedule: Q07DX005 (ip), vehicle: saline",45 % of control
CCOC(=O)C(N)CSC(=O)NC (stereo not given),T/C,"endpoint: median tumor weight change, dose: 100.0 mg/kg/injection, schedule: Q01DX001 (ip), vehicle: saline",115 % of control
same,T/C,"endpoint: median tumor weight change, dose: 200.0 mg/kg/injection, schedule: Q01DX001 (ip), vehicle: saline",81 % of control
same,T/C,"endpoint: median tumor weight change, dose: 250.0 mg/kg/injection, schedule: Q01DX001 (ip), vehicle: saline",91 % of control and 111 % of control
same,T/C,"endpoint: median tumor weight change, dose: 400.0 mg/kg/injection, schedule: Q01DX001 (ip), vehicle: saline",86 % of control
same,T/C,"endpoint: median tumor weight change, dose: 500.0 mg/kg/injection, schedule: Q01DX001 (ip), vehicle: saline",53 % of control and 74 % of control
same,T/C,"endpoint: median tumor weight change, dose: 800.0 mg/kg/injection, schedule: Q01DX001 (ip), vehicle: saline",96 % of control
